Calls of active or inactive are those of the source. No cut-off for these calls is given here.
system: SH-SY5Y; experiment: Cytoprotective activity against H2O2-induced oxidative stress in human SH-SY5Y cells assessed as cell viability at 10 uM preincubated for 24 hrs followed by H2O2 addition and measured after 1 hr by MTT assay (reference value: 37.88 +/- 8.52%); type: functional; details: read-out: Activity

| SMILES | viability at 10 µM [%] |
| --- | --- |
| COc1ccc(-c2nc3nnccn3c2-c2ccc(C)cc2)cc1 | 63.3 |
| COc1ccc(-c2nc3nnccn3c2-c2ccccc2C)cc1 | 72.4 |
| COc1ccc(-c2nc3nnccn3c2-c2cccc(C#N)c2)cc1 | 54.3 |
| COc1ccccc1-c1cn2ccnnc2n1 | 51.1 |
| COc1ccc(-c2nc3nnccn3c2-c2ccc(C)c([N+](=O)[O-])c2)cc1 | 83.3 |
| COc1ccc(-c2nc3nnccn3c2-c2cccc(F)c2)cc1 | 66.4 |
| N#Cc1ccc(-c2cn3ccnnc3n2)cc1 | 54.2 |
| c1ccc(-c2cn3ccnnc3n2)cc1 | 62.6 |
| COc1ccc(-c2nc3nnccn3c2-c2ccc(OC(F)(F)F)cc2)cc1 | 66.8 |

system: SH-SY5Y; experiment: Cytoprotective activity against H2O2-induced oxidative stress in human SH-SY5Y cells assessed as cell viability at 1 uM preincubated for 24 hrs followed by H2O2 addition and measured after 1 hr by MTT assay (reference value: 37.88 +/- 8.52%); type: functional; details: read-out: Activity

| SMILES | viability at 1 µM [%] |
| --- | --- |
| COc1ccc(-c2nc3nnccn3c2-c2ccc(C)cc2)cc1 | 67.4 |
| COc1ccc(-c2nc3nnccn3c2-c2ccccc2C)cc1 | 73.8 |
| COc1ccc(-c2nc3nnccn3c2-c2cccc(C#N)c2)cc1 | 55.5 |
| COc1ccccc1-c1cn2ccnnc2n1 | 60.5 |
| COc1ccc(-c2nc3nnccn3c2-c2ccc(C)c([N+](=O)[O-])c2)cc1 | 79.6 |
| COc1ccc(-c2nc3nnccn3c2-c2cccc(F)c2)cc1 | 51.3 |
| N#Cc1ccc(-c2cn3ccnnc3n2)cc1 | 65.4 |
| c1ccc(-c2cn3ccnnc3n2)cc1 | 72.8 |
| COc1ccc(-c2nc3nnccn3c2-c2ccc(OC(F)(F)F)cc2)cc1 | 54.8 |

system: SH-SY5Y; experiment: Cytoprotective activity against H2O2-induced oxidative stress in human SH-SY5Y cells assessed as cell viability at 0.1 uM preincubated for 24 hrs followed by H2O2 addition and measured after 1 hr by MTT assay (reference value: 37.88 +/- 8.52%); type: functional; details: read-out: Activity

| SMILES | viability at 0.1 µM [%] |
| --- | --- |
| COc1ccc(-c2nc3nnccn3c2-c2ccc(C)cc2)cc1 | 55.3 |
| COc1ccc(-c2nc3nnccn3c2-c2ccccc2C)cc1 | 60.7 |
| COc1ccc(-c2nc3nnccn3c2-c2cccc(C#N)c2)cc1 | 66.6 |
| COc1ccccc1-c1cn2ccnnc2n1 | 62.7 |
| COc1ccc(-c2nc3nnccn3c2-c2ccc(C)c([N+](=O)[O-])c2)cc1 | 49.5 |
| COc1ccc(-c2nc3nnccn3c2-c2cccc(F)c2)cc1 | 54.6 |
| N#Cc1ccc(-c2cn3ccnnc3n2)cc1 | 67.1 |
| c1ccc(-c2cn3ccnnc3n2)cc1 | 77.3 |
| COc1ccc(-c2nc3nnccn3c2-c2ccc(OC(F)(F)F)cc2)cc1 | 78.6 |

system: SH-SY5Y; experiment: Cytoprotective activity against H2O2-induced oxidative stress in human SH-SY5Y cells assessed as increase in cell viability preincubated for 24 hrs followed by H2O2 addition and measured after 1 hr by MTT assay; type: functional, cell-based; details: not given

| SMILES | Activity |
| --- | --- |
| COc1ccc(-c2nc3nnccn3c2-c2ccc(C)cc2)cc1 | Dose-dependent effect |
| COc1ccc(-c2nc3nnccn3c2-c2ccccc2C)cc1 | Dose-dependent effect |
| COc1ccc(-c2nc3nnccn3c2-c2cccc(C#N)c2)cc1 | Dose-dependent effect |
| COc1ccccc1-c1cn2ccnnc2n1 | Dose-dependent effect |
| COc1ccc(-c2nc3nnccn3c2-c2ccc(C)c([N+](=O)[O-])c2)cc1 | Dose-dependent effect |
| COc1ccc(-c2nc3nnccn3c2-c2cccc(F)c2)cc1 | Dose-dependent effect |
| N#Cc1ccc(-c2cn3ccnnc3n2)cc1 | Dose-dependent effect |
| c1ccc(-c2cn3ccnnc3n2)cc1 | Dose-dependent effect |
| COc1ccc(-c2nc3nnccn3c2-c2ccc(OC(F)(F)F)cc2)cc1 | Dose-dependent effect |

system: SH-SY5Y; experiment: Cytotoxicity against human SH-SY5Y cells at 1 to 10 uM after 24 hrs by MTT assay; type: cell-based; details: not given

| SMILES | Activity |
| --- | --- |
| COc1ccc(-c2nc3nnccn3c2-c2ccc(C)cc2)cc1 | Non-Toxic |
| COc1ccc(-c2nc3nnccn3c2-c2ccccc2C)cc1 | Non-Toxic |
| COc1ccc(-c2nc3nnccn3c2-c2cccc(C#N)c2)cc1 | Non-Toxic |
| COc1ccccc1-c1cn2ccnnc2n1 | Non-Toxic |
| COc1ccc(-c2nc3nnccn3c2-c2ccc(C)c([N+](=O)[O-])c2)cc1 | Non-Toxic |
| COc1ccc(-c2nc3nnccn3c2-c2cccc(F)c2)cc1 | Non-Toxic |
| N#Cc1ccc(-c2cn3ccnnc3n2)cc1 | Non-Toxic |
| c1ccc(-c2cn3ccnnc3n2)cc1 | Non-Toxic |
| COc1ccc(-c2nc3nnccn3c2-c2ccc(OC(F)(F)F)cc2)cc1 | Non-Toxic |

system: SH-SY5Y; experiment: Cytoprotective activity against H2O2-induced apoptosis in human SH-SY5Y cells assessed as decrease in Bax levels at 0.1 uM preincubated for 24 hrs followed by H2O2 addition measured after 1 hr by Western blot analysis; type: functional, cell-based; details: not given

| SMILES | Activity |
| --- | --- |
| COc1ccccc1-c1cn2ccnnc2n1 | Active |
| c1ccc(-c2cn3ccnnc3n2)cc1 | inactive |
| COc1ccc(-c2nc3nnccn3c2-c2ccc(OC(F)(F)F)cc2)cc1 | Active |

system: SH-SY5Y; experiment: Cytoprotective activity against H2O2-induced apoptosis in human SH-SY5Y cells assessed as decrease in Bax levels at 1 uM preincubated for 24 hrs followed by H2O2 addition measured after 1 hr by Western blot analysis; type: functional, cell-based; details: not given

| SMILES | Activity |
| --- | --- |
| COc1ccc(-c2nc3nnccn3c2-c2ccccc2C)cc1 | Active |
| COc1ccc(-c2nc3nnccn3c2-c2ccc(C)c([N+](=O)[O-])c2)cc1 | Active |

system: SH-SY5Y; experiment: Cytoprotective activity against H2O2-induced apoptosis in human SH-SY5Y cells assessed as increase in Bcl-2 levels at 0.1 uM preincubated for 24 hrs followed by H2O2 addition measured after 1 hr by Western blot analysis; type: functional, cell-based; details: not given

| SMILES | Activity |
| --- | --- |
| COc1ccccc1-c1cn2ccnnc2n1 | Active |
| COc1ccc(-c2nc3nnccn3c2-c2ccc(OC(F)(F)F)cc2)cc1 | Active |

system: SH-SY5Y; experiment: Cytoprotective activity against H2O2-induced apoptosis in human SH-SY5Y cells assessed as relative Bcl-2 levels at 1 uM preincubated for 24 hrs followed by H2O2 addition measured after 1 hr by Western blot analysis (reference value: 2.084 +/- 0.078); type: functional; details: not given

| SMILES | fold change (FC) |
| --- | --- |
| COc1ccc(-c2nc3nnccn3c2-c2ccc(C)c([N+](=O)[O-])c2)cc1 | 2.398 |

target: MAP kinase p38 (Homo sapiens) (UniProt O15264+Q15759+Q16539+P53778); experiment: Inhibition of H2O2-induced p38 MAPK phosphorylation in human SH-SY5Y cells at 1 uM; type: cell-based; details: not given

| inhibition | SMILES |
| --- | --- |
| Active | COc1ccc(-c2nc3nnccn3c2-c2ccc(C)cc2)cc1 |

system: SH-SY5Y; experiment: Cytoprotective activity against H2O2-induced apoptosis in human SH-SY5Y cells assessed as increase in Bcl-2/Bax ratio at 0.1 uM preincubated for 24 hrs followed by H2O2 addition measured after 1 hr by Western blot analysis; type: functional, cell-based; details: not given

| SMILES | Activity |
| --- | --- |
| COc1ccc(-c2nc3nnccn3c2-c2ccc(OC(F)(F)F)cc2)cc1 | Active |

system: SH-SY5Y; experiment: Cytoprotective activity against H2O2-induced apoptosis in human SH-SY5Y cells assessed as increase in Bcl-2/Bax ratio at 1 uM preincubated for 24 hrs followed by H2O2 addition measured after 1 hr by Western blot analysis; type: functional, cell-based; details: not given

| SMILES | Activity |
| --- | --- |
| COc1ccc(-c2nc3nnccn3c2-c2ccc(C)c([N+](=O)[O-])c2)cc1 | Active |

system: SH-SY5Y; experiment: Cytoprotective activity against H2O2-induced apoptosis in human SH-SY5Y cells assessed as relative cleaved PARP levels at 1 uM (reference value: 0.725 +/- 0.06); type: functional; details: not given

| SMILES | fold change (FC) |
| --- | --- |
| COc1ccc(-c2nc3nnccn3c2-c2ccc(C)cc2)cc1 | 0.581 |

system: SH-SY5Y; experiment: Cytoprotective activity against H2O2-induced apoptosis in human SH-SY5Y cells assessed as relative cleaved caspase-3 levels at 1 uM (reference value: 0.875 +/- 0.035); type: functional; details: not given

| SMILES | fold change (FC) |
| --- | --- |
| COc1ccc(-c2nc3nnccn3c2-c2ccc(C)cc2)cc1 | 0.628 |

target: RAC-alpha serine/threonine-protein kinase (Homo sapiens) (UniProt P31749); experiment: Induction of Akt phosphorylation in H2O2-treated human SH-SY5Y cells at 0.1 uM by ELISA; type: cell-based; details: not given
Sequence (P31749 whole entry): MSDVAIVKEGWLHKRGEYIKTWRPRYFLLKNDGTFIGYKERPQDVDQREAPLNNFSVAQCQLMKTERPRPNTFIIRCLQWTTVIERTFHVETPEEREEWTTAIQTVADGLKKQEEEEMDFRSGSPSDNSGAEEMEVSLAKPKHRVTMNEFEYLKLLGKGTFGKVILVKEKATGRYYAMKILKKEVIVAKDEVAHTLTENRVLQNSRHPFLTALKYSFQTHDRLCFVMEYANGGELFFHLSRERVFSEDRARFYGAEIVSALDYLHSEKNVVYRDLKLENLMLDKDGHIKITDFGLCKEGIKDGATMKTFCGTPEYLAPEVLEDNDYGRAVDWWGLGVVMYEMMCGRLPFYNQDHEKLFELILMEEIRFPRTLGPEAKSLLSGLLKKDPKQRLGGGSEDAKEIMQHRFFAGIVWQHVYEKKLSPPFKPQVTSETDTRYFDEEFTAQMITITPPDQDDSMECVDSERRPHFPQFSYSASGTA

| Activity | SMILES |
| --- | --- |
| Active | COc1ccccc1-c1cn2ccnnc2n1 |
| Active | COc1ccc(-c2nc3nnccn3c2-c2ccc(C)c([N+](=O)[O-])c2)cc1 |
| Active | c1ccc(-c2cn3ccnnc3n2)cc1 |
| Active | COc1ccc(-c2nc3nnccn3c2-c2ccc(OC(F)(F)F)cc2)cc1 |

target: RAC-alpha serine/threonine-protein kinase (Homo sapiens) (UniProt P31749); experiment: Induction of Akt phosphorylation in H2O2-treated human SH-SY5Y cells assessed as increase in pBad levels at 0.1 uM by ELISA; type: cell-based; details: not given

| Activity | SMILES |
| --- | --- |
| Active | COc1ccccc1-c1cn2ccnnc2n1 |
| Active | COc1ccc(-c2nc3nnccn3c2-c2ccc(C)c([N+](=O)[O-])c2)cc1 |
| Active | c1ccc(-c2cn3ccnnc3n2)cc1 |
| Active | COc1ccc(-c2nc3nnccn3c2-c2ccc(OC(F)(F)F)cc2)cc1 |

target: RAC-alpha serine/threonine-protein kinase (Homo sapiens) (UniProt P31749); experiment: Induction of Akt phosphorylation in H2O2-treated human SH-SY5Y cells at 1 uM by ELISA; type: cell-based; details: not given

| Activity | SMILES |
| --- | --- |
| Active | COc1ccc(-c2nc3nnccn3c2-c2ccc(C)cc2)cc1 |

target: RAC-alpha serine/threonine-protein kinase (Homo sapiens) (UniProt P31749); experiment: Induction of Akt phosphorylation in H2O2-treated human SH-SY5Y cells assessed as increase in pBad levels at 1 uM by ELISA; type: cell-based; details: not given

| Activity | SMILES |
| --- | --- |
| Active | COc1ccc(-c2nc3nnccn3c2-c2ccc(C)cc2)cc1 |

target: Eukaryotic translation initiation factor 2 subunit 1 (Homo sapiens) (UniProt P05198); experiment: Inhibition of H2O2-induced eIF2alpha phosphorylation in human SH-SY5Y cells at 1 uM; type: cell-based; details: not given
Sequence (P05198 whole entry): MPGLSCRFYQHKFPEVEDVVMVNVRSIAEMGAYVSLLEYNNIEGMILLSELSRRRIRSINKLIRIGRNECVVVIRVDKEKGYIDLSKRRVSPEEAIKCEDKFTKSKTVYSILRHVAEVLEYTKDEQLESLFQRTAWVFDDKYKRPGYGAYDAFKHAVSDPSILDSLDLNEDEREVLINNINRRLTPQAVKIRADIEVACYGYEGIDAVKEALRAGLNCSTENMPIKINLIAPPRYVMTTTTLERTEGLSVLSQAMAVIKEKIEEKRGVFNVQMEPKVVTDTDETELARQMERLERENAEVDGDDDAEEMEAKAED

| inhibition | SMILES |
| --- | --- |
| inactive | COc1ccc(-c2nc3nnccn3c2-c2ccc(C)cc2)cc1 |
| inactive | COc1ccc(-c2nc3nnccn3c2-c2ccccc2C)cc1 |
| inactive | COc1ccc(-c2nc3nnccn3c2-c2ccc(C)c([N+](=O)[O-])c2)cc1 |

target: Eukaryotic translation initiation factor 2 subunit 1 (Homo sapiens) (UniProt P05198); experiment: Inhibition of H2O2-induced eIF2alpha phosphorylation in human SH-SY5Y cells at 0.1 uM; type: cell-based; details: not given

| inhibition | SMILES |
| --- | --- |
| inactive | COc1ccc(-c2nc3nnccn3c2-c2cccc(C#N)c2)cc1 |
| inactive | COc1ccccc1-c1cn2ccnnc2n1 |
| inactive | c1ccc(-c2cn3ccnnc3n2)cc1 |
| inactive | COc1ccc(-c2nc3nnccn3c2-c2ccc(OC(F)(F)F)cc2)cc1 |

target: Mitogen-activated protein kinase; ERK1/ERK2 (Homo sapiens) (UniProt P27361+P28482); experiment: Inhibition of H2O2-induced p44/42 MAPK phosphorylation in human SH-SY5Y cells at 1 uM; type: cell-based; details: not given
Sequence (P27361 whole entry, looked up): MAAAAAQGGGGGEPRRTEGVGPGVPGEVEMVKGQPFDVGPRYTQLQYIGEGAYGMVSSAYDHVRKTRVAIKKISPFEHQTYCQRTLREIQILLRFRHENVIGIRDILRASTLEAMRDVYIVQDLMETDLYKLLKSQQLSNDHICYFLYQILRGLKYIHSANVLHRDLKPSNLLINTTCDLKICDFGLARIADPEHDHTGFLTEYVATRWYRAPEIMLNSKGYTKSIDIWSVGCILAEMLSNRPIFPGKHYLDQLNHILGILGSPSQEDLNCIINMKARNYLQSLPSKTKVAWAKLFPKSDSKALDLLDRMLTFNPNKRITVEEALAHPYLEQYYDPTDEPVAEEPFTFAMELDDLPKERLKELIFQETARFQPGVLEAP
Sequence (P28482 whole entry, looked up): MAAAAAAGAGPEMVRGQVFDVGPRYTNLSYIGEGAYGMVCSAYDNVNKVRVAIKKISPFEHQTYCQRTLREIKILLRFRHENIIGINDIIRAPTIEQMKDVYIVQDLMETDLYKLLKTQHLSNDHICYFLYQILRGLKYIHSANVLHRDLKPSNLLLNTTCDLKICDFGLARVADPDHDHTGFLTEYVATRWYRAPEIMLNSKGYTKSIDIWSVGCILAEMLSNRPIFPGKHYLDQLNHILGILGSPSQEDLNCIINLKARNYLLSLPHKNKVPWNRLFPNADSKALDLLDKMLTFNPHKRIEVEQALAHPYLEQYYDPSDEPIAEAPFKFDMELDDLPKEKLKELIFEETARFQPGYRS

| inhibition | SMILES |
| --- | --- |
| Active | COc1ccc(-c2nc3nnccn3c2-c2ccc(C)cc2)cc1 |
| Active | COc1ccc(-c2nc3nnccn3c2-c2ccccc2C)cc1 |
| Active | COc1ccc(-c2nc3nnccn3c2-c2ccc(C)c([N+](=O)[O-])c2)cc1 |

system: not listed separately; experiment: Cytoprotective activity against H2O2-induced apoptosis in human SH-SY5Y cells assessed as relative cleaved caspase-7 levels at 1 uM (reference value: 1.025 +/- 0.120); details: not given

| fold change (FC) | SMILES |
| --- | --- |
| 0.856 | COc1ccc(-c2nc3nnccn3c2-c2ccc(C)cc2)cc1 |
| 0.834 | COc1ccc(-c2nc3nnccn3c2-c2ccc(C)c([N+](=O)[O-])c2)cc1 |

— ChEMBL document CHEMBL4145470, “Efficient synthesis and first regioselective C-6 direct arylation of imidazo[2,1-c][1,2,4]triazine scaffold and their evaluation in H2O2-induced oxidative stress” (Eur J Med Chem, 2018)
